Key:
[1] = molecular target: T1, ABL (Homo sapiens, UniProt P00519); assay: Tyrosine kinase assay (Kinase Selectivity System TK-2, ADP-Glo); format: biochemical; details: 1 h incubation, mean ± SD of four experiments; for Inhibition of tyrosine kinase activity [%] ABL: 0.5 μM
T1 construct: purchased Promega

[2] = molecular target: T2, BTK (Homo sapiens, UniProt Q06187); assay: as above; format: biochemical; details: 1 h incubation, mean ± SD of four experiments
T2 construct: purchased Promega

[3] = molecular target: T3, CSK (Homo sapiens, UniProt P41240); assay: as above; format: biochemical; details: 1 h incubation, mean ± SD of four experiments
T3 construct: purchased Promega

[4] = test system: U-251; assay: Cytotoxicity studies (MTS), antiproliferative activity; format: cell-based, human; details: for IC50: Homo sapiens, U-251, 72 h, MTS
From the text: (§1) In contrast, the other cell lines studied represent common cancers found in the human population. Nevertheless, these cell lines are characterised by a different landscape of kinase expression, as reported in[36]. In chronic leukaemia cells, an aberration of the Philadelphia chromosome is common in which a fragment of chromosome 9 is displaced to chromosome 22, leading to the formation of the oncogenic protein BCR-ABL. The altered structure of the protein leads to abnormal activity that promotes excessive growth and differentiation of cells even in the absence of growth factors, as well as inhibition of apoptosis and formation of metastases. Moreover, the status of the TP53 gene in leukaemia is not insignificant. Mutations of the TP53 gene occur in more than 50% of all cancers, leading to increased metastasis and an overall poor prognosis[38]^,[39]. The p53 protein encoded by this gene plays a pivotal role in controlling cell division or cell fate when damage is detected. […] Therefore, interaction between the signalling network of the BCR-ABL pathway and p53 often results in an impairment of p53 function and survival[43]^,[44]. […] Selectivity studies were performed on normal human fibroblast – NHDF cell line.
(§2) M. Rusin from the Maria Sklodowska-Curie Memorial Cancer Centre and Institute of Oncology in Gliwice, Poland. […] G. Kramer-Marek from the Institute of Cancer Research in London, United Kingdom. The human suspension chronic myeloids leukaemia cell line K562 and the pancreatic ductal adenocarcinoma cell line PANC-1 were purchased from Merck. The normal human dermal fibroblasts cell line NHDF were obtained from PromoCell. All adherent cancer cell lines were cultured in Dulbecco’s Modified Eagle’s medium (DMEM) supplemented with 10% heat-inactivated foetal bovine serum – FBS (all from Merck). […] Each complete medium contained a mixture of two antibiotics - penicillin and streptomycin (1% v/v; Gibco). Cell lines were cultured at 37 °C with 5% CO2 humidified atmosphere.
(§3) The assay was carried out after 72 h of incubation with different concentrations of the tested compounds. Then DMEM without phenol red was added to each well with CellTiter 96®AQueous One Solution-MTS (Promega) solution and incubated for 1 h or 3 h (PANC-1) at 37 °C. The optical densities of the samples were measured at 490 nm using a multi-plate reader (Synergy 4, BioTek). […] Each compound was tested in triplicate in a single experiment and each experiment was performed three or four times.

[5] = test system: HCT 116 p53+/+; assay: as above; format: cell-based, human; details: for IC50: Homo sapiens, HCT-116, 72 h, MTS
From the text: as §1, §2, §3

[6] = test system: PANC-1; assay: as above; format: cell-based, human; details: Homo sapiens, PANC-1; 72 h, MTS
From the text: as §1, §2, §3

[7] = test system: K562; assay: as above; format: cell-based, human; details: for IC50: Homo sapiens, K562, 72 h, MTS
From the text: as §1, §2, §3

[8] = test system: A549; assay: as above; format: cell-based, human; details: for IC50: Homo sapiens, A549, 72 h, MTS
From the text: as §1, §2, §3

[9] = test system: HCT 116 p53−/−; assay: as above; format: cell-based, human; details: Homo sapiens, HCT-116; 72 h, MTS
From the text: as §1, §2, §3

[10] = molecular target: T4, Fyn A (Homo sapiens, UniProt P06241); assay: Tyrosine kinase assay (Kinase Selectivity System TK-2, ADP-Glo); format: biochemical; details: 1 h incubation, mean ± SD of four experiments
T4 construct: purchased Promega
T4 sequence (P06241 whole entry): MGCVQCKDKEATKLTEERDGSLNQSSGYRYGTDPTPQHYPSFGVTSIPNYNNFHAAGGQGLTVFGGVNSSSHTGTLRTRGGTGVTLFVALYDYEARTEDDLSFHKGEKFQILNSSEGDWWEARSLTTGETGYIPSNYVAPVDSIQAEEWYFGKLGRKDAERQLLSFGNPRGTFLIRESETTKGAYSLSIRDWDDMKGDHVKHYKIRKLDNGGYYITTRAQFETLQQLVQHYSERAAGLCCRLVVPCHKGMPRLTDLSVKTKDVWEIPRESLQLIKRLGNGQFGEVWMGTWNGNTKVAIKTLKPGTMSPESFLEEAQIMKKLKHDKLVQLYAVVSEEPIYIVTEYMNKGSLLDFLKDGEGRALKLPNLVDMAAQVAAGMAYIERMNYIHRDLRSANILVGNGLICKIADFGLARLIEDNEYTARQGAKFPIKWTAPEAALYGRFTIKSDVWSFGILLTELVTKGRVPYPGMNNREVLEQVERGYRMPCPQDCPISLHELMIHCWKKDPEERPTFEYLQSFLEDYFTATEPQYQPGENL
From the text: All newly synthesised derivatives were screened for their inhibitory potential towards eight non-receptor tyrosine kinases, such as ABL, BTK, BRK and Src family kinases, such as CSK, Lyn, Lck, Fyn and Src. […] To facilitate the analysis of the structure and enzymatic activity, all tested compounds were divided into four subgroups based on the main structural scaffolds (the general structure of each group is shown in the second column of Table 1). Series A, B, and C were subdivided according to the S^4-aryl substituent, while D represents the different styryl groups at the C^2-quinazoline position.
Herein, we used a kinase assay that contained fully expressed kinases with their regulatory domains, which are responsible for autoinhibition. The proteins are present in their unphosphorylated form and the procedure required supplementation with ATP. Importantly, autophosphorylation of ABL is dependent on […] concentration of the protein. Thus, our experimental conditions reflect the cellular process to be simulated. The luminescence signal detected after one hour of incubation with a peptide substrate was a measure of inhibition. Under these conditions, the question of whether the inhibitors tested bind to the ortho or allosteric site of the protein could be answered. […] To test this hypothesis, further molecular docking experiments were performed to more precisely determine the binding of the tested compounds to the ABL kinase.
To determine the inhibition of non-receptor tyrosine kinases, assays were performed using the kinase selectivity system TK-2 and the ADP-Glo Kinase Assay (both from Promega). The protocol was previously developed by our group and described in reports[12]^,[36]. Experiments were performed at least four times. Data are expressed as percentage of tyrosine kinase inhibitory activity after treatment with the derivatives tested.

[11] = test system: NHDF; assay: Cytotoxicity studies (MTS), normal fibroblasts; format: cell-based; details: 72 h, normal human fibroblasts, read-out: Antiproliferative activity IC50 NHDF
From the text: as §1, §2, §3

[12] = molecular target: T5, Src (Homo sapiens, UniProt P12931); assay: Tyrosine kinase assay (Kinase Selectivity System TK-2, ADP-Glo); format: biochemical; details: 1 h incubation, mean ± SD of four experiments
T5 construct: purchased Promega
T5 sequence (P12931 whole entry): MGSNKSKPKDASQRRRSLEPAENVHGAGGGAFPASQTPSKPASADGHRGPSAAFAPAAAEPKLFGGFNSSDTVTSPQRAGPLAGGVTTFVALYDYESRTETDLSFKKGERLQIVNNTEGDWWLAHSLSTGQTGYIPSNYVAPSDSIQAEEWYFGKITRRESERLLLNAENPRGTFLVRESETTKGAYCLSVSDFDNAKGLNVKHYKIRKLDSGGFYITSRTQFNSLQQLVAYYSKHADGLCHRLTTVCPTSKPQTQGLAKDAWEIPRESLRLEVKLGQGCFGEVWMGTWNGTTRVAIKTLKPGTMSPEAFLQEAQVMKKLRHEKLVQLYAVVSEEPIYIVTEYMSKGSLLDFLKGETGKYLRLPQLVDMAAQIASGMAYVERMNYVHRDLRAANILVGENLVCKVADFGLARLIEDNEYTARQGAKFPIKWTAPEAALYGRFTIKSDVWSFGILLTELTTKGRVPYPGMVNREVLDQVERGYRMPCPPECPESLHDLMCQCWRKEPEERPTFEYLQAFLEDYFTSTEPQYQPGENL

[13] = molecular target: T6, Lyn B (Homo sapiens, UniProt P07948); assay: as above; format: biochemical; details: 1 h incubation, mean ± SD of four experiments
T6 construct: purchased Promega
T6 sequence (P07948 1-491 isoform P07948-2): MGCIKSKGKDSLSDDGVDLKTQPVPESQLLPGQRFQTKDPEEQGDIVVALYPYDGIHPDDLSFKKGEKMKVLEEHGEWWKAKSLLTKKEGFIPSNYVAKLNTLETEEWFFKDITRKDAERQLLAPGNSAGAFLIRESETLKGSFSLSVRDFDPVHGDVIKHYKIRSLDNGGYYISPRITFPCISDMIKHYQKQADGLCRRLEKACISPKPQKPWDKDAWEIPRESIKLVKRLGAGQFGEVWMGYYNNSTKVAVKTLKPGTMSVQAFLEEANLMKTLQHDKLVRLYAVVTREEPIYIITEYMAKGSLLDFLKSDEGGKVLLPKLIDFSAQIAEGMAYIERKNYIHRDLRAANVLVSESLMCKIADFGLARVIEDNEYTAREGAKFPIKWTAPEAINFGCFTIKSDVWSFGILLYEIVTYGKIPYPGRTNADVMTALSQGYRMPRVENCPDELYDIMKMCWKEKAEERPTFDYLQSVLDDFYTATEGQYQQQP

[14] = molecular target: T7, BRK (Homo sapiens, UniProt Q13882); assay: as above; format: biochemical; details: 1 h incubation, mean ± SD of four experiments
T7 construct: purchased Promega
T7 sequence (Q13882 whole entry): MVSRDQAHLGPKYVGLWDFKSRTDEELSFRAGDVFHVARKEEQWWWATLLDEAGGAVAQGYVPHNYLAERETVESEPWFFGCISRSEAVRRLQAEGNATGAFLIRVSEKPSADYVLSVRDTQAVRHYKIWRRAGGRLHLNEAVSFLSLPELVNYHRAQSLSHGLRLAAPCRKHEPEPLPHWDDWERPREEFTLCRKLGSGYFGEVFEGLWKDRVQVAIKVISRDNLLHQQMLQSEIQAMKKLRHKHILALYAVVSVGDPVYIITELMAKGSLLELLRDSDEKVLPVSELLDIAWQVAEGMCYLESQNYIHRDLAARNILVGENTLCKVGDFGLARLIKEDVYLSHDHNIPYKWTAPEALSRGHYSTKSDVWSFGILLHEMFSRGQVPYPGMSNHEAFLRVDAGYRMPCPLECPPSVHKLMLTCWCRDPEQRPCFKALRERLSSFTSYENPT

[15] = molecular target: T8, Lck (Homo sapiens, UniProt P06239); assay: as above; format: biochemical; details: 1 h incubation, mean ± SD of four experiments
T8 construct: purchased Promega
T8 sequence (P06239 whole entry): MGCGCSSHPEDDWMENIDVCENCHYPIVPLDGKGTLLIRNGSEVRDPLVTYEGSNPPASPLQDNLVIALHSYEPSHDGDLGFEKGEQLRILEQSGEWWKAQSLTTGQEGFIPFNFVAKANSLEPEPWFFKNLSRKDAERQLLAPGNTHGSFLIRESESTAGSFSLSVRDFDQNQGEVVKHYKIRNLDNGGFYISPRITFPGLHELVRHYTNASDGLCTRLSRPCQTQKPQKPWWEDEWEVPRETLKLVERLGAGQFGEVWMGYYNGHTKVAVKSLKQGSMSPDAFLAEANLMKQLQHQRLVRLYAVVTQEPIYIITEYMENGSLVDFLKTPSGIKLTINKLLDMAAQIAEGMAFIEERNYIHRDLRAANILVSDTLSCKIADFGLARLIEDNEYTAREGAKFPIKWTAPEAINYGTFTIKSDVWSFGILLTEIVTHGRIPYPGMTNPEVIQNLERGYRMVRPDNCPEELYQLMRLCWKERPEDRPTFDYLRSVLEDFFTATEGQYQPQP

[16] = test system: MCF-7; assay: Cytotoxicity studies (MTS), antiproliferative activity; format: cell-based, human; details: for IC50: Homo sapiens, MCF7, 72 h, MTS
From the text: as §1, §2, §3

[17] = test system: K562 cells; assay: Cell cycle assay (Muse Cell-Cycle Kit, flow cytometry); format: cell-based, human; details: 16 h, concentration not given; control 28.68%
Procedure: The interesting inhibitory potential of ABL kinase and the high antiproliferative activity of several styrylquinazoline derivatives prompted us to further investigate their mechanism of action.
K562 cells were seeded in 3 cm Petri dishes (Nunc) at a density of 150,000 cells per well and incubated under standard conditions at 37 °C for 24 h. […] After 16 h of treatment, assays were performed using a Muse Cell-Cycle Kit (Millipore) according to the supplier’s instructions. Briefly, leukaemia cells were collected, washed in cold PBS, and centrifuged. Cells were then fixed in ice-cold 70% ethanol and stored at −20 °C overnight. The next day, leukaemia cells were washed with cold PBS, centrifuged and resuspended in Muse™ Cell Cycle Reagent. Samples were incubated for 30 min at room temperature in the dark. After staining, the levels of cellular subpopulations in each cell cycle phase were determined using a Muse Cell Analyser (Millipore). Experiments were performed at least four times.

T1 sequence (P00519 whole entry): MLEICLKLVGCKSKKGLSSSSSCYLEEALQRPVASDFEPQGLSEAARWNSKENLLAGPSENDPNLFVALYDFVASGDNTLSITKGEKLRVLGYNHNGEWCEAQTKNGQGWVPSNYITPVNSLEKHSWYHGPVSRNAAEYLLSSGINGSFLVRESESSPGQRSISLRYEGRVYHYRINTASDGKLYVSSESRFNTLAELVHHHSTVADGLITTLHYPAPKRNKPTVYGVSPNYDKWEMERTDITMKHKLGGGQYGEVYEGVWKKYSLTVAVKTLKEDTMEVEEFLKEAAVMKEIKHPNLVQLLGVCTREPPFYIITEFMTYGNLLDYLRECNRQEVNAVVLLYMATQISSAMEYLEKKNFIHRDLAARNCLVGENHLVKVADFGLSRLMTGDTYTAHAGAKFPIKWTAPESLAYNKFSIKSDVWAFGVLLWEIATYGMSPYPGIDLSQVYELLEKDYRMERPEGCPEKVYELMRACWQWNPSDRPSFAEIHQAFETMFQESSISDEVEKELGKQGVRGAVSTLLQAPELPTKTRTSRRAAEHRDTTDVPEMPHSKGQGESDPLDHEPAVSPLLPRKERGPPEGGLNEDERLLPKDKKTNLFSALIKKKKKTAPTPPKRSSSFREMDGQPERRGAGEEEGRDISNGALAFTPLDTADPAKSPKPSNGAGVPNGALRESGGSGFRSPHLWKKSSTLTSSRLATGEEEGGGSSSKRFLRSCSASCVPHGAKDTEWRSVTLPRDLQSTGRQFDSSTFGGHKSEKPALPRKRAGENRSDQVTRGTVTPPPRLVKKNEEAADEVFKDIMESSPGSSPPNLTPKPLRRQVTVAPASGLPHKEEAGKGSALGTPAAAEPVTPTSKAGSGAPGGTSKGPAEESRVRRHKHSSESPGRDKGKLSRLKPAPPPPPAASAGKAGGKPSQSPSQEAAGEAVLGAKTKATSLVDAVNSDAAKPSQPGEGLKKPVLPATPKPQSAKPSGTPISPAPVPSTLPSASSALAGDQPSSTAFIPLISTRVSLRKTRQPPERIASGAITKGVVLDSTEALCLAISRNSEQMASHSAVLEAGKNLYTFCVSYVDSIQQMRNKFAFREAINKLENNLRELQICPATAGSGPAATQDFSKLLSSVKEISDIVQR
T2 sequence (Q06187 whole entry): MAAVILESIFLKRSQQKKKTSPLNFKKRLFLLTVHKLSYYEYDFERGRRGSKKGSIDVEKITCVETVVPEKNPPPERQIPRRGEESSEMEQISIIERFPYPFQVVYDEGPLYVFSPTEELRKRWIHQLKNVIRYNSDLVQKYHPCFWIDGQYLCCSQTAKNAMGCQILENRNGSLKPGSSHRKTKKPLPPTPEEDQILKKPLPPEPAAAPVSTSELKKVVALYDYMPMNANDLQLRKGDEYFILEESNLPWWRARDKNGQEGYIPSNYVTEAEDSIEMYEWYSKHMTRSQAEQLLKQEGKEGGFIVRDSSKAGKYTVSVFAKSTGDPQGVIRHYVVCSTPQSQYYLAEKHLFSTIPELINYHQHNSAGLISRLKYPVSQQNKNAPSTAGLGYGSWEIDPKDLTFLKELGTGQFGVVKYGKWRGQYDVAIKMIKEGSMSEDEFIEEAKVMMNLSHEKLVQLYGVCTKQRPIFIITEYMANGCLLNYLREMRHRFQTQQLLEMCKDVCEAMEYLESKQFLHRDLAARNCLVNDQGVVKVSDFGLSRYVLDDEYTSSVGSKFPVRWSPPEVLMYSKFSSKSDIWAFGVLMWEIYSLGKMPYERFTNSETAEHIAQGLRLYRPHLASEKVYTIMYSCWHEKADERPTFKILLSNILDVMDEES

inhibition at 0.5 µM [1] [%]	inhibition at 0.5 µM [2] [%]	inhibition at 0.5 µM [3] [%]	inhibition at 0.5 µM [10] [%]	inhibition at 0.5 µM [12] [%]	inhibition at 0.5 µM [13] [%]	inhibition at 0.5 µM [14] [%]	inhibition at 0.5 µM [15] [%]	SMILES	IC50 [4] [µM]	IC50 [5] [µM]	IC50 [6] [µM]	IC50 [7] [µM]	IC50 [8] [µM]	IC50 [9] [µM]	IC50 [11] [µM]	other results
35.9 ± 7.23	28.7 ± 2.94	39.2 ± 6.47	52 ± 3.43	54	57	19.3 ± 4.65	60.7 ± 5.1	COc1ccccc1/C=C/c1nc(Sc2ccc(SC)cc2)c2ccccc2n1 [IS9, 2-[(E)-2–(2-methoxyphenyl)ethenyl]-4-[4-(methylthio)phenylthio]quinazolin]	> 10	> 20	> 25	> 25	> 15	> 20	> 25	Inhibition of tyrosine kinase activity [%] Src ([12]; 0.5 μM): 54.23 ± 3.07%; Inhibition of tyrosine kinase activity [%] Lyn B ([13]; 0.5 μM): 57.44 ± 1.76%
11.9 ± 2.86	9.58 ± 0.62	7.77 ± 3.16	19.8 ± 3.51	21 ± 1.82	0	0	0	COc1ccc(/C=C/c2nc(Sc3cc4c(cc3Br)OCO4)c3ccccc3n2)c(OC)c1 [IS17, 5-{2-[(E)-2–(2,4-dimethoxyphenyl)ethenyl]quinazolin-4-ylthio}-6-bromo-2H-1,3-benzodioxole]	20.2 ± 0.9	> 15	> 15	> 10	> 15	> 15	21.3 ± 0.8	Inhibition of tyrosine kinase activity [%] ABL [1]: inactive
35.6 ± 1.5	13.1 ± 2.69	15.5 ± 2.88	50.1 ± 3.49	0	0	0	48.1 ± 6.55	COc1ccc(/C=C/c2nc(Sc3ccccc3Cl)c3ccccc3n2)c(OC)c1 [IS16, 2-[(E)-2–(2,4-dimethoxyphenyl)ethenyl]-4–(2-chlorophenylthio)quinazoline]	20.9 ± 1.63	> 15	> 2.5	7.83 ± 0.753	13.4 ± 0.6	> 10	14.6 ± 1.27	Selectivity index U-251 ([4]; versus NHDF): 1.20; Selectivity index HCT 116 p53+/+ ([5]; versus NHDF): 1.67; IC50 [16]: > 25 µM; Selectivity index MCF-7 ([16]; versus NHDF): 1.00; Selectivity index K562 ([7]; versus NHDF): 3.20; Selectivity index A549 ([8]; versus NHDF): 1.86
–	–	11.4 ± 3.89	43.8 ± 2.96	10.8 ± 1.95	39 ± 9.95	0	–	CNC(=O)c1ccccc1Sc1ccc2c(/C=C/c3ccccn3)n[nH]c2c1 [Axitinib, axitinib, reference compound]	–	–	–	–	–	–	–	Fraction of cells in the G2/M phase [17]: 47.28%
29.8 ± 0.95	45.9 ± 7.54	17.4 ± 6.31	34.1 ± 2.53	18.5 ± 1.07	3.39 ± 0.47	0	0	COc1ccccc1/C=C/c1nc(Sc2ccccc2Br)c2ccccc2n1 [IS4, 2-[(E)-2–(2-methoxyphenyl)ethenyl]-4–(2-bromophenylthio)quinazoline]	> 15	> 10	> 25	> 15	> 15	> 10	> 25	Inhibition of tyrosine kinase activity [%] BTK ([2]; 0.5 μM): moderate activity
41	39.3 ± 2.69	33.1 ± 1.19	57.5 ± 4.04	53.4 ± 3.13	32.3 ± 2.51	27.2 ± 1.31	51.5 ± 4.55	COc1ccccc1/C=C/c1nc(Sc2cc3c(cc2Br)OCO3)c2ccc(Cl)cc2n1 [IS15, 5-{2-[(E)-2–(2-methoxyphenyl)ethenyl]-7-chloroquinazolin-4-ylthio}-6-bromo-2H-1,3-benzodioxole]	> 25	> 25	> 25	21.2 ± 2.19	> 25	> 25	> 25	Inhibition of tyrosine kinase activity [%] ABL [1]: 41.81 ± 4.38%; IC50 [16]: > 25 µM
45.9 ± 2.63	53.5 ± 1.33	39.3 ± 4.74	25.7 ± 2.29	8.17 ± 1.71	0	0	0	COc1cccc(Sc2nc(/C=C/c3ccccc3OC)nc3ccccc23)c1 [IS7, 2-[(E)-2–(2-methoxyphenyl)ethenyl]-4–(3-methoxyphenylthio)quinazoline]	> 15	> 15	> 15	> 10	> 15	> 15	> 20	–
